The molecules below were run against T1, human Y5 receptor (Homo sapiens, UniProt Q15761) (assay: Y5 receptor binding inhibition test). Conditions: 2 h, read-out: % Inhibition ratio (10 μM).
T1 sequence (Q15761 1-445): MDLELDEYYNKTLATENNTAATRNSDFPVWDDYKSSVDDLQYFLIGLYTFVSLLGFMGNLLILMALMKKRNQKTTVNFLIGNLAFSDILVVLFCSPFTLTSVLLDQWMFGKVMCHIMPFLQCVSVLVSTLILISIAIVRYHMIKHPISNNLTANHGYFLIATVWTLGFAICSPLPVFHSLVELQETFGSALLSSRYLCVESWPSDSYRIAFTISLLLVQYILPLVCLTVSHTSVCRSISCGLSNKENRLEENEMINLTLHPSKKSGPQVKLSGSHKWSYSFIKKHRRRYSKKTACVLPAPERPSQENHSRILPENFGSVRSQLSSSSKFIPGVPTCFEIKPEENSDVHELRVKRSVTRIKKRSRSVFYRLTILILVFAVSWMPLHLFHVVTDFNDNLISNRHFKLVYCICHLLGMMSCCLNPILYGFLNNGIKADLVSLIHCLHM

| SMILES | inhibition at 10 µM |
| --- | --- |
| CCn1c2ccccc2c2cc(C(=O)NCCCCCNS(=O)(=O)c3cccc4cccnc34)ccc21 [Compound 1-16] | 94% |
| CCn1c2ccccc2c2cc(C(=O)NC(C)CCCCNS(=O)(=O)c3cccc4ccccc34)ccc21 (stereo not shown) [Compound 1-34] | 88% |
| CCOc1c(C(=O)NCCCCCNS(=O)(=O)c2cccc3ccccc23)ccc2c1c1ccccc1n2CC [Compound 1-39] | 80% |
| CCn1c2ccccc2c2cc(NC(=O)CCCNS(=O)(=O)c3cccc4ccccc34)ccc21 [Compound 1-5] | 98% |
| CCn1c2ccccc2c2cc(NC(=O)CCCCCNS(=O)(=O)c3cccc4ccccc34)ccc21 [Compound 1-2] | 91% |
| CC(=O)n1c2ccccc2c2cc(C(=O)NCCCCCNS(=O)(=O)c3cccc4ccccc34)ccc21 [Compound 1-54] | 88% |
| CCn1c2ccccc2c2cc(C(=O)NCCCCCNC(=O)c3ccccc3)ccc21 [Compound 1-21] | 97% |
| CCn1c2c(c3cc(C(=O)NCCOCCn4nnnc4N)ccc31)CCCC2 [Compound 2-4] | 85% |
| CCn1c2c(c3cc(C(=O)NCCOCCSc4ncn[nH]4)ccc31)CCCC2 [Compound 2-1] | 71% |
| CCn1c2ccccc2c2cc(C(=O)NCCCCCNS(=O)(=O)c3ccccc3)ccc21 [Compound 1-15] | 111% |
| CCn1c2ccccc2c2cc(C(=O)NCCCCCNC(=O)C34CC5CC(CC(C5)C3)C4)ccc21 [Compound 1-20] | 86% |
| CCn1c2ccccc2c2cc(C(=O)NCCCCCN3C(=O)c4ccccc4C3=O)ccc21 [Compound 1-56] | 94% |
| CC(C)n1c2ccccc2c2cc(C(=O)NCCCCCNS(=O)(=O)c3cccc4ccccc34)ccc21 [Compound 1-47] | 100% |
| CCn1c2ccccc2c2cc(C(=O)NCCCCCNS(C)(=O)=O)ccc21 [Compound 1-10] | 99% |
| CCn1c2ccccc2c2cc(C(=O)NCCSCCNS(=O)(=O)c3cccc4ccccc34)ccc21 [Compound 1-27] | 96% |

Same assay, conditions: test compound 10 μM; 3H-NPY; membrane of insect cells expressing human Y5 receptor; 4° C., 2 hours; relative to Y5 specific binding in solvent group

| SMILES | % Inhibition ratio (10 μM) |
| --- | --- |
| CC(C)n1c2c(c3cc(NC(=O)N(C)CCCCO)ccc31)CCCC2 [Compound 5-6] | 89% |
| CC(C)n1c2c(c3cc(NC(=O)N4CCOC(CCO)C4)ccc31)CCCC2 (stereo not shown) [Compound 7-17] | 99% |
| CC(C)n1c2c(c3cc(NC(=O)N4CCOCC4)ccc31)CCC2 [Compound 10-4] | 94% |
| CC(C)n1c2c(c3cc(NC(=O)N(C)CCOCCO)ccc31)CCCC2 [Compound 5-10] | 104% |
| CC(C)n1c2c(c3cc(NC(=O)N(C)CCc4ccncc4)ccc31)CCCC2 [Compound 5-20] | 103% |
| CC(C)n1c2c(c3cc(NC(=O)N(C)CCCn4ccnc4)ccc31)CCCC2 [Compound 5-22] | 100% |
| CC(C)n1c2c(c3cc(NC(=O)N(C)CCc4ccncc4)ccc31)CCC2 [Compound 10-3] | 95% |
| CC(C)n1c2c(c3cc(NC(=O)N4CCC[C@@H]4CO)ccc31)CCCC2 [Compound 7-6] | 88% |
| O=C(Nc1ccc2c(c1)c1c(n2CC2CC2)CCCC1)N1CCOCC1 [Compound 8-7] | 100% |
| CC(C)n1c2c(c3cc(NC(=O)N(C)Cc4ccncc4)ccc31)CCCC2 [Compound 5-17] | 100% |
| CC(C)n1c2c(c3cc(NC(=O)N(C)CCC#N)ccc31)CCCC2 [Compound 5-9] | 98% |
| CC(C)Cn1c2c(c3cc(NC(=O)N4CCOCC4)ccc31)CCCC2 [Compound 8-6] | 100% |
| CC(C)n1c2c(c3cc(NC(=O)N4CCCCCC4)ccc31)CCCC2 [Compound 7-3] | 98% |

From patent publication US6713473B1, “Tricyclic compounds” (Meiji Seika Kaisha, Ltd., priority 1999, dated 2004)
